Holding throughout (format): cell-based
For assay [1], the system named is C2C12 cells. Briefly: Cell attachment / cellular coverage on protein-coated siloxane surface. To be noted: for coating concentration sufficient to enhance the adhesion of cells to the surface: C2C12 cells on coated siloxane surface; for cellular coverage on the substrate: C2C12 seeded at 60,000 cells/cm^2, assessed the following day, covalent or passive coating, 100-3,000 ug mL-1. The method, then: After silane film fabrication, the film surface was further modified with a biomacromolecule coating to enhance cell attachment. Biomacromolecules assessed for cell attachment include collagen type I (rat tail, acid extracted) and laminin. […] Passive coating of the substrate is achieved by incubating a solution of the biomacromolecule (e.g., 300 ug mL-1 collagen type I in 17 mM acetic acid) on the film for either 1 hour at room temperature or overnight at 4° C. Excess biomacromolecule was removed by washing the substrate with phosphate buffered saline (PBS).
The surface was coated with Collagen I and Laminin, either covalently or passively. Covalent conjugation is achieved with sulfo-SANPAH conjugation method, and passive coating is achieved by incubating the siloxane surface in the presence of the protein for 1 hour at room temperature. The protein was titrated from 100 ug mL-1-3,000 ug mL-1. C2C12 cells were seeded on the coated surface at 60,000 cells/cm^2, and cellular coverage on the substrate was assessed the following day.

Assay [2] concerns HEP-G2. Briefly: Oxygen consumption of HEP-G2 cells on the oxygen sensing film. To be noted: HEP-G2, drug treatment.
Assay [3] concerns PC-3. Briefly: Oxygen consumption of PC-3 cells on the oxygen sensing film. To be noted: PC-3, drug treatment.
Assay [4] deals with HCT-116 cells. Briefly: Oxygen consumption of HCT-116 cells on the oxygen sensing film. The method, then:
To determine the minimum number of cells necessary to observe a signal change, HCT-116 cells were titrated from 15k-120k cells/well (95k-750k cells/cm^2). The following day, the culture medium of the cells was replaced with fresh DMEM (high glucose, without phenol red), and the ratiometric fluorescence of 650/490 nm was recorded over time in a plate reader with temperature control at 37° C. […] Further experiments using drug treatments were carried out at 250k cells/cm^2.
HCT-116 cells were seeded onto the oxygen sensing surface functionalized with 300 ug mL-1 Collagen I at 40,000 cells/well of a half-area 96-well plate (250,000 cells/cm^2). The following day, the culture medium was replaced with medium containing 2-[[4-(trifluoromethoxy)phenyl]hydrazinylidene]propanedinitrile (FCCP), an uncoupler of oxidative phosphorylation in mitochondria that increases oxygen consumption. […] HCT-116 cells were additionally treated with rotenone at 2 uM, which is an inhibitor of oxidative phosphorylation.

For the compound Laminin, in assay [1], the “coating concentration sufficient to enhance the adhesion of cells to the surface” value came out at 300 µg/mL and the “cellular coverage on the substrate” value was “enhanced cellular coverage”.

With `C=C(C)[C@H]1Cc2c(ccc3c2O[C@@H]2COc4cc(OC)c(OC)cc4[C@@H]2C3=O)O1` [rotenone], the oxygen consumption result in assay [2] is given as “decreased oxygen consumption”; in assay [3], “decreased oxygen consumption”; in assay [4] (HCT-116, rotenone at 2 uM) it was “inhibited oxygen consumption”.

Regarding “Collagen I: collagen type I (rat tail, acid extracted), biomacromolecule coating to enhance cell attachment”, in assay [1], the “coating concentration sufficient to enhance the adhesion of cells to the surface” value stood at 300 µg/mL and the “cellular coverage on the substrate” value is “enhanced cellular coverage”. The cell attachment entry in assay [1] (passive coating of the film) was “sufficient for cell attachment”.

With `N#CC(C#N)=NNc1ccc(OC(F)(F)F)cc1` [FCCP, 2-[[4-(trifluoromethoxy)phenyl]hydrazinylidene]propanedinitrile], the oxygen consumption entry is given as “increased oxygen consumption” in assay [2]; “increased oxygen consumption” in assay [3]; “oxygen consumption increased with increasing FCCP concentration up to 4 uM” in assay [4] (HCT-116, 40,000 cells/well, FCCP treatment, concentration up to 4 uM).
